Where a name gives a salt, the structure may show the parent alone.
Tested on: spontaneously hypotensive rats (SHR)
Assay: Hypotensive activity: systolic blood pressure by tail plethysmographic technique after oral dosing
Format: in vivo
Conditions: 30 mg/kg orally, SHR fasted overnight
Description: A test compound dissolved or suspended in water was administered orally at a dose of 30 mg/kg to spontaneously […] (SHR) fasted overnight, and the systolic blood pressure of the rats was measured at intervals by the tail plethysmographic technique (The Journal of Laboratory and Clinical Medicine, Vol. 78(1971), page 957). The hypotensive activity of the test compound was estimated in terms of "Decrease in Blood pressure (Δ mm Hg)" which was calculated by the following formula: Decrease in Blood pressure (Δ mm Hg) = [formula]

COc1ccc([C@@H]2Sc3ccc4ccccc4c3N(CCN(C)C)C(=O)[C@@H]2OC(C)=O)cc1 (racemic) [Test compound, (±)-cis-2-(4-methoxyphenyl)-3-acetoxy-5-[2-dimethylamino)ethyl]-2,3-dihydro-naphtho[2,1-b][1,5]thiazepin-4(5H)-one fumarate]
Decrease in Blood pressure (Time after dosing 1 hr): 58.3±8.8 Δmm Hg | Decrease in Blood pressure (Time after dosing 2 hrs): 51.3±7.7 Δmm Hg | Decrease in Blood pressure (Time after dosing 5 hrs): 34.0±6.2 Δmm Hg

From patent EP0302379A1, “Naphthothiazepine derivatives and a process for preparing the same” (TANABE SEIYAKU CO., LTD., priority 1987, dated 1989)
